The values that follow come from patent US10093679B2, “Amino sulfonyl-based compounds, the preparation method therefor and use thereof” (SUZHOU VIGONVITA LIFE SCIENCES CO., LTD., priority 2014, dated 2018).

Like-named read-outs stand apart in the source and are kept apart here.

Test [1] has as its system maximal electroshock seizure. The experiment in a line: Maximal electroshock seizure (MES) test on mice. Particulars: 100 mg/kg intragastric. Format: in vivo. From the text: The Maximal Electroshock Seizure Test on Mice
MES (maximal electroshock seizure test) was used to evaluate whether the compounds have an effect against […] and thus to make preliminary evaluation of the efficacy of each compound in treating epilepsy. Multipurpose instrument for pharmacological and biological experiments (mode, YSD-4G) was used to conduct experiments under the condition of convulsive mode, 115V of stimulation voltage, 250 ms of stimulation time, 50 HZ AC voltage. Positive and negative electrodes were used to clamp the left and right ear of the mice, respectively, which were wetted by normal saline. The tonic hind limb extension seizure after stimulation was deemed as judgment standard of grand mal. The mice were randomly divided into groups. The compounds were given by intragastric administration based on the dose of 100 mg/kg.
Background: The maximal electroshock test induces tonic seizures with an electrical stimulus.

The nature of test [2]: Influence on rats' serum total cholesterol and triglyceride. Format: in vivo, SD rats. Also on record: total cholesterol / triglyceride: unit not given here. The settings on record: for total cholesterol / triglyceride: rats' serum, 5 weeks after administration. The procedure: Study on the Influence of the Compounds on the Rats' Total Cholesterol and Triglyceride
50 male SD rats with weight of 180˜200 g were randomly divided into groups with 8 in each group. […] 5 weeks after administration, the level of total cholesterol and triglyceride in rats' serum were determined and the results were shown in table 2.

The target of test [3] is T1, Human carbonic anhydrase II (CA-II) (Homo sapiens, UniProt P00918).
T1 construct: purchased Sigma
The experiment in a line: Inhibiting effect on carbonic anhydrase (CO2 hydration, bromothymol blue colour change). The format is biochemical. The protocol: Preparation Method of the Reagent
Chromogenic Buffer Solution:
HEPES was dissolved in distilled water to prepare a solution with a concentration of 10 mM; the pH was adjusted to 7.7 with 1 M Tris at 23° C.; bromothymol blue was dissolved in HEPES buffer solution with pH 7.7 to a concentration of 50 mg/L;
Saturated CO2-ice water was prepared by adding dry ice into icy distilled water.
Solution of CA-II enzyme was prepared into a concentration of 2 m/ml, and stored at −20° C.
Tested sample was prepared by using distilled water as solvent with various concentrations.
The time required for changing into yellow was recorded. The time required for the blank tube was recorded as t0, the time required for the standard tube was recorded as ts and the time required for the test tube was recorded as t. (t0−ts)/ts was normal activity of enzyme, and (t0−t)/t was the activity after affecting by the test compound.

In test [4] the test system is maximal electroshock seizure. Particulars: literature value, cited from earlier work.

Consider `NS(=O)(=O)NCc1ccsc1Cl` [Example 13, N-[(2-chloro-3-thienyl)methyl]-sulfamide], for which the “Inhibition rate of epileptic seizure” value in test [1] (0.5 h after administration) is given as 37.5%.
On to `NS(=O)(=O)NCc1noc2cc(Cl)ccc12` [Example 1, N-[(6-chloro-benzo[d]isoxazol-3-yl)methyl]-sulfamide], for which the “Inhibition rate of epileptic seizure” value in test [1] (0.5 h after administration) was determined as 66.7%; in test [1] (2 h after administration) it was 50%.
Take `NS(=O)(=O)Cc1noc2ccccc12` [Zonisamide, reference compound]: the “Inhibition rate of epileptic seizure” value in test [1] (0.5 h after administration) amounted to 33.3%; in test [1] (1.5 h after administration), 16.7%; in test [1] (2 h after administration), 16.7%.
As to `CC1(C)O[C@@H]2[C@@H](CO[C@@]3(COS(N)(=O)=O)OC(C)(C)O[C@@H]23)O1` [Topiramate, reference compound], the “Inhibition rate of epileptic seizure” value in test [1] (0.5 h after administration) is reported as 37.5%. The “Inhibition rate of epileptic seizure” value in test [1] (1.5 h after administration) was 37.5%. In test [2] (40 mg/kg intragastric), this molecule showed a total cholesterol of 1.56 ± 0.19 and a triglyceride of 1.45 ± 0.34.
As to `NS(=O)(=O)NCc1noc2ccccc12` [Example 3, N-[(benzo[d]isoxazol-3-yl)methyl]-sulfamide], the “Inhibition rate of epileptic seizure” value in test [1] (0.5 h after administration) turned out to be 88.9%; in test [1] (1.5 h after administration), 66.7%; in test [1] (2 h after administration), 77.8%. In addition, the total cholesterol in test [2] (20 mg/kg intragastric) is reported as 1.64 ± 0.28; in test [2] (40 mg/kg intragastric), 1.53 ± 0.17; in test [2] (80 mg/kg intragastric), 1.32 ± 0.21. Further, the triglyceride is on record as 1.13 ± 0.24 in test [2] (20 mg/kg intragastric), 0.99 ± 0.16 in test [2] (40 mg/kg intragastric) and 0.84 ± 0.06 in test [2] (80 mg/kg intragastric). In addition, the “effect on the level of total cholesterol and triglyceride (in words)” value in test [2] (rats' serum, 20, 40, 80 mg/kg, 5 weeks) is listed as “significantly decrease”. In addition, the IC50 in test [3] was 154 µM. Further, in test [3], the “inhibiting effect on carbonic anhydrase compared with reference drugs (in words)” value was “poorer inhibiting effect than topiramate and zonisamide”.
With `NS(=O)(=O)NCc1csc2ccccc12` [JNJ-26990990], the “Inhibition rate of epileptic seizure” value in test [4] (0.5 h) was 20%; in test [4] (2 h), 60%.
As for `CN(C)S(=O)(=O)NCc1noc2ccccc12` [Example 9, N-[(benzo[d]isoxazol-3-yl)methyl]-N′,N′-dimethyl-sulfamide], the results for the “Inhibition rate of epileptic seizure” value in test [1] (0.5 h after administration) and in test [1] (2 h after administration) were 44.4% and 11.1%, respectively.
For `NS(=O)(=O)NCc1noc2cc(F)ccc12` [Example 2, N-[(6-fluoro-benzo[d]isoxazol-3-yl)methyl]-sulfamide], the “Inhibition rate of epileptic seizure” value in test [1] (2 h after administration) was found to be 33.3%.

A word on the IC50: it is the concentration that gives 50% inhibition.
